Test results taken from ChEMBL document CHEMBL1135611, “Thrombin inhibition by novel benzamidine derivatives: a free-energy perturbation study” (J Med Chem, 2002).

Target: Prothrombin (Homo sapiens, UniProt P00734)
Assay: Binding Affinity to Thrombin

Row | Structure (SMILES) | Ki
1 | NC(N)c1ccc(CC(=O)C(=O)O)cc1 | 620 nM
2 | NC(N)c1ccccc1 | 300 nM
